Reference: article PMC11647725, “Discovery of 4-(5-Membered)Heteroarylether-6-methylpicolinamide Negative Allosteric Modulators of Metabotropic Glutamate Receptor Subtype 5” (ACS Medicinal Chemistry Letters, 2024)
Like-named read-outs stand apart in the source and are kept apart here.

Legend:
human mGlu5 = target: T1, human mGlu5 (Homo sapiens, UniProt P41594); test: Calcium mobilization assay in human mGlu5-HEK293A cells (NAM, EC80 glutamate); format: cell-based; conditions: for % GluMin: efficacy of the NAM to reduce an EC80 response of glutamate; for pIC50: n = 2 in triplicate; for IC50: read-out: hmGlu5 IC50; for fold increase in hmGlu5 potency: 22fC vs 22bC, 22gA vs 22iA, 22iA vs 22hA, 22iB vs 22hB
T1 construct: expressed in transfected cells

[1] = Intrinsic clearance in rat liver microsomes; format: in vitro ADME; conditions: for CLint scaled at 40 min, 1 µM: pH 7.4, rat liver microsomes; for CLhep, rat: predicted hepatic clearance based on microsomal CLint
Description: (§1) Mean values for each species were calculated from 3 replicates.
(§2) Intrinsic Clearance in Rat and Human Liver Microsomes
(§3) The in vitro intrinsic clearance (CL int) was investigated in commercially obtained hepatic microsomes from rat and human donors using the substrate depletion (i.e., loss-of-parent vs. time, or t 1/2 method) approach with analyte detection via liquid chromatography-tandem mass spectrometry (LC-MS/MS). For each species, mean %parent remaining values at each time point were calculated from replicates raw data (analyte:IS peak area ratios) and used to determine in vitro t 1/2 and CLint.
(§4) Experiments were carried out using a robot-assisted (TECAN model Evo 200). Compound was incubated (1 µM final concentration) in buffer (100 mM potassium phosphate pH 7.4 with 3 mM MgCl2) containing hepatic microsomes (0.5 mg/mL final concentration) from multiple species, discretely, at 37 °C under constant orbital shaking. After 5 minutes (pre-incubation), reactions were initiated by addition of nicotinamide adenine dinucleotide phosphate (NADPH, 1 mM final concentration). At selected time intervals (0, 3, 7, 15, 25, and 45 minutes) post-addition of NADPH, aliquots (50 µL) were taken and placed into a 96-shallow-well plate containing ice cold acetonitrile (150 µL) with carbamazepine (IS, 50 nM). The plates were then centrifuged (3000 rcf at 4 °C) for 10 minutes. The supernatants were transferred to a new 96-shallow-well daughter plate and diluted (1:1 v/v) with water (Milli-Q filtered). The plates were then sealed in preparation for LC-MS/MS analysis (see below).
(§5) Raw LC-MS/MS peak area data generated from the assay samples were used to construct natural log-transformed %parent remaining vs. time plots (using t = 0 minute post-NADPH addition sample data as starting point set to 100%). In vitro compound half-life (t 1/2) values were obtained using the following […]
(§6) k is the slope from linear regression analysis of the natural log-transformed data (using means from Where all replicates at each time point). Resulting t 1/2 values were then used to calculate hepatic CLint values according to the following equation and with the use of species-specific scale-up factors for liver weight (grams) per total body weight (kg): […]
(§7) CLint = in vitro t1/2 x 0.5 mg microsomes x 1 gram liver x kg body wt aScale-up factors used are 45 (rat) and 20 (human).4
(§8) Predicted hepatic clearance (CLhep) was calculated using the following equation: […]
(§9) Qh represents hepatic blood flow (mL/min/kg): 21 for human, 70 for rat, and 90 for mouse.
(§10) Prepared samples were injected (10 µL each) onto an AB Sciex Triple Quad 4500 mass spectrometer system with an Agilent 1260 Infinity II pump and autosampler. Mass spectrometer conditions are described in Table S1. Quantitation of compounds was performed via AB Sciex Multiquant software using the raw analyte:IS peak area ratios. The typical detection range was 0.5 ng/mL to ≥ 5,000 ng/mL utilizing a quadratic equation regression with 1/x2 weighting.
(§11) Correction for dilution of all brain samples (in extraction buffer and subsequently in blank plasma, as previously described) was performed post-quantitation. The corrections for dilution in extraction buffer employed correction factors specific to each brain weight (not shown).

[2] = Intrinsic clearance in human liver microsomes; format: in vitro ADME; conditions: for CLint scaled at 40 min, 1 µM: pH 7.4, human liver microsomes; for CLhep, human: predicted hepatic clearance based on microsomal CLint
Description: as §1, §2, §3, §4, §5, §6, §7, §8, §9, §10, §11

[3] = Binding in plasma from rat (equilibrium dialysis); format: in vitro ADME; conditions: for stability in rat plasma: samples had low analyte peaks; for fraction unbound at 6 h, 5 µM: rat, plasma, equilibrium dialysis, read-out: Rat fu,plasma
Description: (§12) Binding in plasma from rat and human.
(§13) Determination of compounds’ fraction unbound (f u) in plasma from rat and human was conducted in vitro via equilibrium dialysis using HTDialysis membrane plates. Dialysis membranes (four paired strips per HTD assay) were hydrated as described by the manufacturer and inserted into the HTD plate, which was assembled and prepared for sample addition by the dispensing of blank buffer (DPBS, 100 µL/well) into the ‘top half’ of each membrane-split well. Each compound was diluted into plasma from each species (5 µM final concentration), which was aliquoted in triplicate to the ‘bottom half’ of the prepared HTD plate wells. The HTD plate was sealed and incubated for 6 hours at 37 °C. Following incubation, each well (both top and bottom halves) were transferred (20 µL) to the corresponding wells of a 96-shallow-well (V-bottom) plate. The daughter plates were then matrix-matched (buffer side wells received equal volume of plasma, and plasma side wells received equal volume of buffer), and extraction solution (120 µL; acetonitrile containing 50 nM carbamazepine as IS) was added to all wells of both daughter plates to precipitate protein and extract test article. The plates were then sealed and centrifuged (3500 rcf) for 10 minutes at ambient temperature. Supernatant (60 µL) from each well of the daughter plates was then transferred to the corresponding wells of new daughter plates (96-shallow-well, V bottom) containing water (Milli-Q, 60 µL/well), and the plates were sealed in preparation for LC-MS/MS analysis (see below). fu was calculated as (analyte to IS MS peak area ratio from Trans-buffer side) / (analyte to IS MS peak area ratio from Cis-plasma side). Mean values for each species were calculated from 3 replicates. […]
(§14) Mean values for each species were calculated from 3 replicates. […]
as §4, with “After” for “Experiments were carried out using a robot-assisted (TECAN model Evo 200). Compound was incubated (1 µM final concentration) in buffer (100 mM potassium phosphate pH 7.4 with 3 mM MgCl2) containing hepatic microsomes (0.5 mg/mL final concentration) from multiple species, discretely, at 37 °C under constant orbital shaking. After”

[4] = Binding in plasma from human (equilibrium dialysis); format: in vitro ADME; conditions: for fraction unbound at 6 h, 5 µM: human, plasma, read-out: Human fu,plasma
Description: as §12, §13, §14
as §4, with “After” for “Experiments were carried out using a robot-assisted (TECAN model Evo 200). Compound was incubated (1 µM final concentration) in buffer (100 mM potassium phosphate pH 7.4 with 3 mM MgCl2) containing hepatic microsomes (0.5 mg/mL final concentration) from multiple species, discretely, at 37 °C under constant orbital shaking. After”

[5] = Binding in brain homogenate from rat (equilibrium dialysis); format: in vitro ADME; conditions: rat brain homogenates; for fraction unbound at 6 h, 1 µM: rat, brain homogenate, read-out: Rat fu,brain
Description: transferred to the corresponding wells of new daughter plates (96-shallow-well, V bottom) containing water (Milli-Q, 60 µL/well), and the plates were sealed in preparation for LC-MS/MS analysis (see below). fu was calculated as (analyte to IS MS peak area ratio from Trans-buffer side) / (analyte to IS MS peak area ratio from Cis-plasma side). Mean values for each species were calculated from 3 replicates.
Binding in brain homogenate from rat.
Determination of fraction unbound (f u) in brain homogenate from rat was conducted using the same methodology and procedure than described for plasma protein binding assay with the following modifications: 1) a final compound concentration of 1 μM was used, 2) naïve rat brains were homogenized in DPBS (1:3 composition of brain: DPBS, w/w) using a Mini-Bead Beater™ machine in order to obtain […]
The diluted fraction unbound (f u2) in brain was calculated as (analyte to IS MS peak area ratio from Trans-buffer side) / (analyte to IS MS peak area ratio from Cis-brain homogenate side). Undiluted fraction unbound for the brain was calculated using the following equation: […]
as §14

[6] = IV plasma-brain level determination (PBL) in rat; format: in vivo; conditions: male, Sprague-Dawley, brain and plasma, SD rat, 0.2 mg/kg IV; for Kp at 0.25 h: total brain-to-plasma partition ratio; for Kp uu at 0.25 h: unbound brain-to-plasma partition ratio
[7] = human mGlu5-HEK293A cells, EC80 fixed concentration of glutamate

T1 sequence (P41594 21-1212): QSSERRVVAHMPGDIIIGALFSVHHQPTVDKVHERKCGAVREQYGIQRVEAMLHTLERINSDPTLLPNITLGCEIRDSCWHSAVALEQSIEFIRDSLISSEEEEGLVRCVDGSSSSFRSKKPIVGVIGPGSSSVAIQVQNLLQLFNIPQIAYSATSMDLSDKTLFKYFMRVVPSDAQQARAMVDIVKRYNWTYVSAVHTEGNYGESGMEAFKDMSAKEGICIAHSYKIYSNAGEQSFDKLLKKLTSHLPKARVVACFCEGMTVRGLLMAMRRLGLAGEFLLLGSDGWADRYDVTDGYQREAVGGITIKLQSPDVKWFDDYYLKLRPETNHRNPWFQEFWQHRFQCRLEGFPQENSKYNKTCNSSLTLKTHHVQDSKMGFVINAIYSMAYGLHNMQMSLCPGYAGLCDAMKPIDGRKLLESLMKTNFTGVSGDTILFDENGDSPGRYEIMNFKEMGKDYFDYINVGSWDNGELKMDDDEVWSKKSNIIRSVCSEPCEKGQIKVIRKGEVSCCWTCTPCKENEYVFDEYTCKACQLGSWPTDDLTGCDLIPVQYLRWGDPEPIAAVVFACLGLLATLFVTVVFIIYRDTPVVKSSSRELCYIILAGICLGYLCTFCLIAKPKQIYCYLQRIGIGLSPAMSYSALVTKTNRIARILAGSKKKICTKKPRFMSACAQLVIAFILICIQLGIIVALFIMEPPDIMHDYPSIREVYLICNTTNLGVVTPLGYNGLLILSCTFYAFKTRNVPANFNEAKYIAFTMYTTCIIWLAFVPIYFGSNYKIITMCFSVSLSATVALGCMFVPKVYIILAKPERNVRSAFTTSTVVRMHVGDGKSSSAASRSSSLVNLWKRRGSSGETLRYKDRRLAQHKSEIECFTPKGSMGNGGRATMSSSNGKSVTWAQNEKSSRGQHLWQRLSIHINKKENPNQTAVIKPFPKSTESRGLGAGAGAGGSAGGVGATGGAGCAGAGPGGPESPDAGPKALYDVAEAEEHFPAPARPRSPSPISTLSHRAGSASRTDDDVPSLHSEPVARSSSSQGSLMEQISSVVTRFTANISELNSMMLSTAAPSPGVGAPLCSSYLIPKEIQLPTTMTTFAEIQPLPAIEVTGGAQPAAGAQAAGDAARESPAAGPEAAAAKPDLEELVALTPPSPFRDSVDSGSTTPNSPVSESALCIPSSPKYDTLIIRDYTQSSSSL

Structure (SMILES)	% GluMin (human mGlu5; human mGlu5-HEK293A cells) [%]	pIC50 (human mGlu5; [7])	IC50 (human mGlu5; [7]) [nM]	fold increase in hmGlu5 potency (human mGlu5) [fold]	CLint scaled at 40 min, 1 µM [1] [mL/min/kg]	CLhep, rat [1] [mL/min/kg]	CLint scaled at 40 min, 1 µM [2] [mL/min/kg]	CLhep, human [2] [mL/min/kg]	stability in rat plasma [3]	fraction unbound at 6 h, 5 µM [4]	Rat fu,brain ([5]; fraction unbound)	fraction unbound at 6 h, 1 µM [5]	Kp at 0.25 h [6]	fraction unbound at 6 h, 5 µM [3]	Kp uu at 0.25 h [6]	IC50 (human mGlu5) [nM]	Human fu,plasma ([4]; fraction unbound)
Cc1cc(Oc2cc(C)n(C)n2)cc(C(=O)Nc2nc(C)cs2)n1 [22eB]	2	5.77	1720														
Cc1cccc(NC(=O)c2cc(Oc3cc(C)nn3C)cc(C)n2)n1 [22fC]	2	6.69	207	7.8	436	60	71	16	possibly be unstable in rat plasma	0.037	0.008	< 0.01	1.02				
Cc1cc(Oc2cnn(C)c2C(F)(F)F)cc(C(=O)Nc2nc(C)cs2)n1 [22gB]	2	7.58	26		817	65	70	16	possibly be unstable in rat plasma				5.57				
Cc1cc(Oc2cn(C)nc2C)cc(C(=O)Nc2nc(C)cs2)n1 [22bB]	2	5.91	1250														
Cc1cccc(NC(=O)c2cc(Oc3cnn(C)c3)cc(C)n2)n1 [22iC]	1	7.38	41		234	54	77	17		0.041		0.013	1.04	0.059	0.23		
Cc1cccc(NC(=O)c2cc(Oc3cnn(C)c3)c(C(F)(F)F)cn2)n1 [24C]	2	5.89	1330													1300	
Cc1cccc(NC(=O)c2cc(Oc3ncn(C)n3)cc(C)n2)n1 [22dC]	2	6.00	1010														
Cc1cc(Oc2ncn(C)n2)cc(C(=O)Nc2nc(C)cs2)n1 [22dB]	2	5.73	1890														
Cc1cc(Oc2ccnn2C)cc(C(=O)Nc2ccc(F)cn2)n1 [22hA]	2	6.30	506														
Cc1cccc(NC(=O)c2cc(Oc3cnn(C)c3C(F)(F)F)cc(C)n2)n1 [22gC]					600	63	68	16		0.011		0.005					
Cc1cc(Oc2ccnn2C)cc(C(=O)Nc2nc(C)cs2)n1 [22hB]	2	7.02	96		45	27	216	19		> 0.04		0.029	1.13		0.15		0.062
Cc1cc(Oc2cnn(C)c2)cc(C(=O)Nc2nc(C)cs2)n1 [22iB]	2	7.56	28	3.4	44	27	46	14		0.063		0.014	1.37	0.089	0.22		
Cc1cccc(NC(=O)c2cc(Oc3c(C)nn(C)c3C)cc(C)n2)n1 [22aC]	2	5.55	2840													2800	
Cc1cc(Oc2cnn(C)c2C(F)(F)F)cc(C(=O)Nc2ccc(F)cn2)n1 [22gA]	2	6.93	120	~3	82	38	11	7	possibly be unstable in rat plasma	0.012			3.08				
Cc1csc(NC(=O)c2cc(Oc3cnn(C)c3)c(C(F)(F)F)cn2)n1 [24B]	2	5.55	2820													2800	
Cc1cc(Oc2cc(C(F)F)n(C)n2)cc(C(=O)Nc2nc(C)cs2)n1 [22cB]	2	5.74	1850														
Cc1cccc(NC(=O)c2cc(Oc3ccnn3C)cc(C)n2)n1 [22hC]	2	7.04	91		320	57	241	19	potentially be unstable in rat plasma	0.034		0.021	2.42				
